Laboratory results taken from patent US20240398773A1, “COMPOSITIONS COMPRISING OTESECONAZOLE” (Mycovia Pharmaceuticals, Inc., priority 2021, published 2024).
Read-outs that look alike come from different tables or passages of the source.

Key:
[1] = Study CL-011 plasma concentrations; assay type: in vivo; details: human
Description: A total of 217 subjects were randomized to receive oteseconazole and 109 subjects were randomized to receive placebo. All subjects were followed for 36 weeks after the end of treatment. Blood samples for determination of oteseconazole plasma concentrations were collected at Baseline, Day 14, Week 12, Week 24, Week 36, and Week 48 (End of Study (EOS]). Following the loading dose regimen of 150 mg oteseconazole QD for 7 days, the mean (SD) oteseconazole plasma concentration at Day 14 was 1676.2 (876.27) μg/L.

[2] = Study CL-003 in subjects with tinea pedis, plasma PK; assay type: in vivo, human; details: for AUC(0-t): read-out: AUC0−8
Description: Oteseconazole was slowly absorbed, with median time to peak plasma concentration values that ranged from 5.0 to 6.0 hours after dosing on Days 1 and 14 for all treatments. […] The Cmax values on Day 1 were similar between the mid- and high-dose treatments, since the first dose on that day was 600 mg for each treatment.

[3] = Phase 2b study and three Phase 3 studies, plasma concentration at end of dosing; assay type: in vivo; details: human, oral, loading dose Days 1 and 2, then 150 mg weekly, read-out: mean plasma concentrations at the end of the dosing period (Week 14)
Description: Oteseconazole dosing regimens will also incorporate a 150 mg once weekly maintenance dose phase for 11 weeks. The initial loading dose given on Days 1 and 2 combined with maintenance dosing of 150 mg oteseconazole weekly for a total treatment duration of 12 weeks was efficacious in preventing recurrence of acute VVC episodes for the duration of the study (48-50 weeks). Based on the PK results from a Phase 2b study and three Phase 3 studies, mean plasma concentrations of approximately 2.5 to 3.5 μg/mL are observed at the end of the dosing period (Week 14).

Tinea Pedis = experiment: Study CL-003 therapeutic cure of tinea pedis; assay type: in vivo, human
From the text: Even though the target concentrations were not reached for either dose group in this study, oteseconazole was efficacious in treating TP.

recurrent VVC episode = experiment: Study CL-006 culture-verified recurrent VVC episodes; assay type: in vivo, human; details: 150 mg, 3 months dose group (150 mg QD 7 days, then 150 mg QW 11 weeks)
From the text: The dosing regimen yielded oteseconazole plasma concentrations that provided marked efficacy across all dose groups, with no differences in the extent of efficacy noted.

[4] = human, plasma, High Dose 1200 mg/300 mg, Day 1
[5] = human, plasma, High Dose 1200 mg/300 mg, Day 14
[6] = human, plasma, Low Dose 200 mg/50 mg, Day 1
[7] = human, plasma, Low Dose 200 mg/50 mg, Day 14
[8] = human, plasma, Mid Dose 600 mg/150 mg, Day 1
[9] = human, plasma, Mid Dose 600 mg/150 mg, Day 14

concentration at 12 week ([1]; 150 mg, Week 12, maximum concentration, read-out: mean (SD) plasma concentration): 3400 ng/mL
concentration at 48 week ([1]; 150 mg, Week 48, read-out: mean (SD) plasma concentration): 1150 ng/mL
concentration at 14 day ([1]; Day 14, after loading 150 mg QD for 7 days, read-out: mean (SD) plasma concentration): 1680 ng/mL
increase in Cmax, high-dose versus mid-dose treatment ([2]; Day 14, 2-fold dose difference): 15%
increase in concentration (Cmax), mid versus low dose ([2]; Days 1 and 14, 3-fold increase in dose): 2 fold
Cmax achieved as share of target ([2]; high-dose group): about 25%
Cmax [2, 4]: 757 ng/mL
Tmax [2, 4]: 5 h
AUC(0-t) [2, 4]: 3540 ng·h/mL
Cmax [2, 5]: 2520 ng/mL
Tmax [2, 5]: 5.02 h
AUC(0-t) [2, 5]: 17600 ng·h/mL
Cmax [2, 6]: 366 ng/mL
Tmax [2, 6]: 6 h
AUC(0-t) [2, 6]: 1680 ng·h/mL
Cmax [2, 7]: 1090 ng/mL
Tmax [2, 7]: 5 h
AUC(0-t) [2, 7]: 7950 ng·h/mL
Cmax [2, 8]: 679 ng/mL
Tmax [2, 8]: 6 h
AUC(0-t) [2, 8]: 3320 ng·h/mL
Cmax [2, 9]: 2180 ng/mL
Tmax [2, 9]: 5 h
AUC(0-t) [2, 9]: 16100 ng·h/mL
half-life ([2]; human, plasma, blood sampling for 168 days (4032 hours), read-out: terminal phase half-life, range of median values): 86.7 to 172 days
Cmax achieved as share of target ([2]; mid-dose group): about 50%
concentration at 14 week [3]: 2500 to 3500 ng/mL
Compound: O[C@@](Cn1cnnn1)(c1ccc(F)cc1F)C(F)(F)c1ccc(-c2ccc(OCC(F)(F)F)cc2)cn1 [Oteseconazole, oteseconazole]
therapeutic cure (Tinea Pedis; high dose group): 21.4%
therapeutic cure (Tinea Pedis; low dose group): 16.7%
therapeutic cure (Tinea Pedis; mid dose group): 8.3%
subjects with a culture-verified recurrent VVC episode by Week 48 (recurrent VVC episode): 4.8%
